{"source": "ChEMBL document CHEMBL3860075", "about": "“Synthesis, characterization, and evaluation of (E)-methyl 2-((2-oxonaphthalen-1(2H)-ylidene)methylamino)acetate as a biological agent and an anion sensor” (Bioorg Med Chem, 2016)", "key": {"Proteus vulgaris": {"tested_on": "Proteus vulgaris", "test": "Antimicrobial activity against Proteus vulgaris ATCC 13315 after 24 hrs by broth microdilution assay", "assay_type": "functional", "settings": "ATCC 13315, 24 h"}, "Enterococcus faecalis": {"tested_on": "Enterococcus faecalis", "test": "Antimicrobial activity against Enterococcus faecalis ATCC 29212 after 24 hrs by broth microdilution assay", "assay_type": "functional", "settings": "ATCC 29212, 24 h"}, "Bacillus spizizenii": {"tested_on": "Bacillus spizizenii", "test": "Antimicrobial activity against Bacillus subtilis ATCC 6633 after 24 hrs by broth microdilution assay", "assay_type": "functional", "settings": "ATCC 6633, 24 h"}, "Pseudomonas aeruginosa": {"tested_on": "Pseudomonas aeruginosa", "test": "Antimicrobial activity against Pseudomonas aeruginosa ATCC 254992 after 24 hrs by broth microdilution assay", "assay_type": "functional", "settings": "ATCC 254992, 24 h"}, "Candida tropicalis": {"tested_on": "Candida tropicalis", "test": "Antimicrobial activity against Candida tropicalis ATCC 13803 after 24 hrs by broth microdilution assay", "assay_type": "functional", "settings": "ATCC 13803, 24 h"}, "Escherichia coli [1]": {"tested_on": "Escherichia coli", "test": "Antimicrobial activity against Escherichia coli ATCC 25922 after 24 hrs by broth microdilution assay", "assay_type": "functional", "settings": "ATCC 25922, 24 h"}, "Bos taurus [2]": {"species": "Bos taurus", "test": "Binding affinity to calf thymus DNA assessed as bathochromism at 3 10^-5M after 5 mins by UV-visible spectroscopic analysis"}, "[3]": {"test": "Binding affinity to 1 equiv tetrabutylamonium fluoride anion assessed as disappearance of peak by 1H NMR method"}, "Escherichia coli [4]": {"tested_on": "Escherichia coli", "test": "Induction of hydrolytic cleavage of Escherichia coli supercoiled pBR322 DNA assessed as increase in nicked circular form at 200 uM after 3 hrs by agarose gel electrophoretic analysis"}, "[5]": {"test": "Binding affinity to cyanide anion assessed as compound color change from colorless to yellow at compound:anion ratio of 1:1 under UV light by colorimetric method"}, "[6]": {"test": "Binding affinity to 0.5 equiv tetrabutylamonium fluoride anion assessed as decrease in N-H proton intensity by 1H NMR method"}, "Escherichia coli [7]": {"tested_on": "Escherichia coli", "test": "Antimicrobial activity against Escherichia coli ATCC 35218 after 24 hrs by broth microdilution assay", "assay_type": "functional", "settings": "ATCC 35218, 24 h"}, "Bos taurus [8]": {"species": "Bos taurus", "test": "Binding affinity to calf thymus DNA assessed as formation of intense band at 260 nanometer at 3 10^-5M after 5 mins by UV-visible spectroscopic analysis"}, "Salmonella typhimurium [9]": {"tested_on": "Salmonella typhimurium", "test": "Genotoxicity in Salmonella typhimurium TA100 at 0.5 to 500 ppm per plate in absence of S9 fraction by Ames test", "assay_type": "toxicity, organism-based", "settings": "salmonella enterica subsp. enterica serovar typhimurium"}, "Salmonella typhimurium [10]": {"tested_on": "Salmonella typhimurium", "test": "Genotoxicity in Salmonella typhimurium TA98 at 0.5 to 500 ppm per plate in absence of S9 fraction by Ames test", "assay_type": "toxicity, organism-based", "settings": "salmonella enterica subsp. enterica serovar typhimurium"}, "Escherichia coli [11]": {"tested_on": "Escherichia coli", "test": "Induction of oxidative cleavage of Escherichia coli supercoiled pBR322 DNA assessed as increase in nicked circular form at 25 uM after 3 hrs in presence of H2O2 by agarose gel electrophoretic analysis"}, "[12]": {"test": "Binding affinity to cyanide anion assessed as compound color change from colorless to yellow at compound:anion ratio of 1:1 under natural light by colorimetric method"}, "Candida albicans": {"tested_on": "Candida albicans", "test": "Antimicrobial activity against Candida albicans ATCC 60193 after 24 hrs by broth microdilution assay", "assay_type": "functional", "settings": "ATCC 60193, 24 h"}, "[13]": {"test": "Binding affinity to cyanide anion assessed as disappearance of peak at 430 nanometer at 5 10^-6M by UV-visible spectroscopic analysis"}, "Staphylococcus aureus": {"tested_on": "Staphylococcus aureus", "test": "Antimicrobial activity against Staphylococcus aureus ATCC 25923 after 24 hrs by broth microdilution assay", "assay_type": "functional", "settings": "ATCC 25923, 24 h"}}, "note": "The source made the active and inactive calls. The calls are words filed in the database; no cut-off is given here.", "data": [{"compound": "CC1(C)S[C@@H]2[C@H](NC(=O)[C@H](N)c3ccccc3)C(=O)N2[C@H]1C(=O)O", "note": "[AMPICILLIN]", "values": [{"measurement": "MIC", "setting": "Proteus vulgaris", "result": 2, "unit": "µg/mL"}, {"measurement": "MIC", "setting": "Enterococcus faecalis", "result": 2, "unit": "µg/mL"}, {"measurement": "MIC", "setting": "Bacillus spizizenii", "result": 1, "unit": "µg/mL"}, {"measurement": "MIC", "setting": "Pseudomonas aeruginosa", "result": 2, "unit": "µg/mL"}]}, {"compound": "OC(Cn1cncn1)(Cn1cncn1)c1ccc(F)cc1F", "note": "[FLUCONAZOLE]", "values": [{"measurement": "MIC", "setting": "Candida tropicalis", "result": 32, "unit": "µg/mL"}]}, {"compound": "COC(=O)CN/C=C1/C(=O)C=Cc2ccccc21", "values": [{"measurement": "MIC", "setting": "Proteus vulgaris", "result": 256, "unit": "µg/mL"}, {"measurement": "MIC", "setting": "Candida tropicalis", "result": 128, "unit": "µg/mL"}, {"measurement": "MIC", "setting": "Enterococcus faecalis", "result": 256, "unit": "µg/mL"}, {"measurement": "MIC", "setting": "Escherichia coli [1]", "result": 256, "unit": "µg/mL"}, {"measurement": "Activity", "setting": "Bos taurus [2]", "result": "1 to 4", "unit": "nm"}, {"measurement": "Activity", "setting": "[3]", "result": "Active"}, {"measurement": "Activity", "setting": "Escherichia coli [4]", "result": "Active"}, {"measurement": "Activity", "setting": "[5]", "result": "Active"}, {"measurement": "Activity", "setting": "[6]", "result": "Active"}, {"measurement": "MIC", "setting": "Bacillus spizizenii", "result": 128, "unit": "µg/mL"}, {"measurement": "MIC", "setting": "Escherichia coli [7]", "result": 256, "unit": "µg/mL"}, {"measurement": "Activity", "setting": "Bos taurus [8]", "result": "Active"}, {"measurement": "Activity", "setting": "Salmonella typhimurium [9]", "result": "> 40", "unit": "%"}, {"measurement": "Activity", "setting": "Salmonella typhimurium [10]", "result": "Non-Toxic"}, {"measurement": "MIC", "setting": "Pseudomonas aeruginosa", "result": 128, "unit": "µg/mL"}, {"measurement": "Activity", "setting": "Escherichia coli [11]", "result": "Active"}, {"measurement": "Activity", "setting": "[12]", "result": "Active"}, {"measurement": "MIC", "setting": "Candida albicans", "result": 128, "unit": "µg/mL"}, {"measurement": "Activity", "setting": "[13]", "result": "Active"}, {"measurement": "MIC", "setting": "Staphylococcus aureus", "result": 128, "unit": "µg/mL"}]}]}
